Data from patent publication US10005776B2, “Compounds as NIK inhibitors” (Janssen Pharmaceutica NV, priority 2014, dated 2018).

Columns and labels:
[1] = molecular target: Recombinant Human NF-kappaB-Inducing Kinase (NIK/MAP3K14) (Homo sapiens, UniProt Q99558); experiment: Inhibition of auto-phosphorylation of recombinant human NIK/MAP3K14 (AlphaScreen); assay type: biochemical; conditions: 25 microM ATP, 0.2 nM GST-tagged NIK/MAP3K14, 1 h at 25° C.; averaged over all measurements on all batches; read-out: Alpha-Screen IC50
Chain of Recombinant Human NF-kappaB-Inducing Kinase (NIK/MAP3K14) (Q99558 whole entry): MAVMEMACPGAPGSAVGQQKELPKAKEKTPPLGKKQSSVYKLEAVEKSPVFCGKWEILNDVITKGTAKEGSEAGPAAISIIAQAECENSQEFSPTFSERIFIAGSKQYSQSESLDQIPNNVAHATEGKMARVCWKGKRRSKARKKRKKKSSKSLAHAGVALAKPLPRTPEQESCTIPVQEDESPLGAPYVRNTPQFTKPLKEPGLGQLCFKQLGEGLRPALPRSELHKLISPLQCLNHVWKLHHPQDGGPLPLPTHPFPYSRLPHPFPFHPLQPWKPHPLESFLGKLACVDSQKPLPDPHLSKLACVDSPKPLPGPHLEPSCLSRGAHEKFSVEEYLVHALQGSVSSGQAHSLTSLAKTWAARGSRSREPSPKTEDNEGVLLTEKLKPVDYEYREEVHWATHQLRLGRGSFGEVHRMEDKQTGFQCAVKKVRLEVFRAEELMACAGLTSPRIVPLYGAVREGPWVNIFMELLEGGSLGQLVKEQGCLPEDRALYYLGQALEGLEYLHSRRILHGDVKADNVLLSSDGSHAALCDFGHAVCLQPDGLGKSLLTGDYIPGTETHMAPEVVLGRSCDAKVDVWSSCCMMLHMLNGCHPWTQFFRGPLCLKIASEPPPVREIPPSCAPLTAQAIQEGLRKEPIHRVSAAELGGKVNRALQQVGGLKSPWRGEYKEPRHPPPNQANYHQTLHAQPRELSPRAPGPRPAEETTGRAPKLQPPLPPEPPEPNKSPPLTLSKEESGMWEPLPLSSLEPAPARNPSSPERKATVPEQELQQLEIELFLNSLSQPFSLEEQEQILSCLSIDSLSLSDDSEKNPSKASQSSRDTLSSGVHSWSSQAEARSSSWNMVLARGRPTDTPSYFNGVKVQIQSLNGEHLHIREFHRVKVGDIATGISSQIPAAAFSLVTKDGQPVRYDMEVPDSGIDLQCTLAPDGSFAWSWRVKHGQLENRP
Method: Inhibition of Auto-Phosphorylation of Recombinant Human NF-kappaB-Inducing Kinase (NIK/MAP3K14) Activity (AlphaScreen®)
NIK/MAP3K14 auto-phosphorylation activity was measured using the AlphaScreen® (αscreen) format (Perkin Elmer). All compounds tested were dissolved in dimethyl sulfoxide (DMSO) and further dilutions were made in assay buffer. Final DMSO concentration was 1% (v/v) in assays. Assay buffer was 50 mM Tris pH 7.5 containing 1 mM EGTA (ethylene glycol tetraacetic acid), 1 mM DTT (dithiothreitol), 0.1 mM Na3VO4, 5 mM MgCl2, 0.01% Tween® 20. Assays were carried out in 384 well Alphaplates (Perkin Elmer). Incubations consisted of compound, 25 microM Adenosine-5′-triphosphate (ATP), and 0.2 nM NIK/MAP3K14. Incubations were initiated by addition of GST-tagged NIK/MAP3K14 enzyme, carried out for 1 h at 25° C. and terminated by addition of stop buffer containing anti-phospho-IKK Ser176/180 antibody. Protein A Acceptor and Glutathione-Donor beads were added before reading using an EnVision® Multilabel Plate Reader (Perkin Elmer). Signal obtained in the wells containing blank samples was subtracted from all other wells and IC50's were determined by fitting a sigmoidal curve to % inhibition of control versus Log10 compound concentration.

[2] = test system: JJN-3 cells; experiment: Antiproliferative activity on JJN-3 cells (CellTiter-Glo); assay type: cell-based, human; conditions: 72 hr treatment, averaged values
Method: (§1) Determination of Antiproliferative Activity on LP-1, L-363 and JJN-3 Cells
(§2) All compounds tested were dissolved in DMSO and further dilutions were made in culture medium. Final DMSO concentration was 0.3% (v/v) in cell proliferation assays. Viability was assessed using CellTiter-Glo cell viability assay kit (Promega). The human LP-1, L-363 and JJN-3 cells (DSMZ) were cultured in RPMI 1640 medium supplemented with 2 mM L-glutamine, and 10% fetal calf serum (PAA). Cells were routinely kept as suspension cells at 37° C. in a humidified 5% CO2 atmosphere. Cells were passaged at a seeding density of 0.2×10^6/ml twice a week. Cells were seeded in black tissue culture treated 96-well plates (Perkin Elmer). Densities used for plating ranged from 2,000 to 6,000 cells per well in a total volume of 75 μl medium. After twenty four hours, drugs and/or solvents were added (25 μl) to a final volume of 100 μl. Following 72 hr of treatment plates were removed from the incubator and allowed to equilibrate to room temperature for approx 10 min. 100 μl CellTiter-Glo reagent was added to each well that was then covered (Perkin Elmer Topseal) and shaken on plate shaker for 10 min. Luminescence was measured on a HTS Topcount (Perkin Elmer). Within an experiment, the results for each treatment were the mean of 2 replicate wells. For initial screening purposes, compounds were tested using a 9 point dilution curve (serial 1:3 dilutions). For each experiment, controls (containing no drug) and a blank incubation (containing cells read at the time of compound addition) were run in parallel. The blank value was subtracted from all control and sample values. For each sample, the mean value for cell growth (in relative light units) was expressed as a percentage of the mean value for cell growth of the control.

[3] = test system: L-363 cells; experiment: Antiproliferative activity on L-363 cells (CellTiter-Glo); assay type: cell-based, human; conditions: 72 hr treatment, averaged values
Method: as §1, §2

[4] = test system: LP-1 cells; experiment: Antiproliferative activity on LP-1 cells (CellTiter-Glo); assay type: cell-based, human; conditions: 72 hr treatment, averaged values
Method: as §1, §2

Structure (SMILES)	IC50 [1] [µM]	EC50 [2] [µM]	EC50 [3] [µM]	EC50 ([4]; Homo sapiens, LP-1, 72 h) [µM]	EC50 ([2]; Homo sapiens, JJN-3, 72 h) [µM]	EC50 ([3]; Homo sapiens, L-363, 72 h) [µM]	EC50 [4] [µM]
[2H]C([2H])([2H])C(O)(C#Cc1cc2c(-c3nc(N)ncc3F)cn(C3CCCN(CCC)C3)c2cn1)C([2H])([2H])[2H] (single isomer, unassigned) [Compound 25]	0.082	0.102	0.066				0.163
CC(O)(C#Cc1cc2c(-c3nc(N)ncc3F)c[nH]c2cn1)c1nccs1 (single isomer, unassigned) [Compound 30]	0.02	2.08	4.76				11.6
CC(O)(C#Cc1cc2c(-c3nc(N)ncc3F)c[nH]c2c(C2CC2)n1)C1CC1 (stereo not drawn) [Compound 1]	0.095			0.019	0.008	0.004	
Cc1nc(C#CC(C)(O)C2CC2)cc2c(-c3nc(N)ncc3F)c[nH]c12 (stereo not drawn) [Compound 2]	0.007			0.039	0.007	0.005	
Nc1ncc(F)c(-c2c[nH]c3c(C4CC4)nc(C#CC4(O)CCCC4)cc23)n1 [Compound 22]	0.037			0.11	0.037	0.024	
CCCCN1CCC(n2cc(-c3nc(N)ncc3F)c3cc(C#CC(C)(O)C4CC4)ncc32)C1 (single isomer, unassigned) [Compound 26]	0.018			0.114	0.101	0.063	
[2H]C([2H])([2H])C(O)(C#Cc1cc2c(-c3nc(N)ncc3F)cn(C3CCCN(CCC)C3)c2cn1)C([2H])([2H])[2H] (stereo not drawn) [Compound 12]	0.056	0.038	0.042				0.076
COCCCN1CCC(n2cc(-c3nc(N)ncc3F)c3cc(C#CC(C)(O)C4CC4)ncc32)C1 (stereo not drawn) [Compound 8]	0.03			0.158	0.119	0.08	
CC(C)n1cc(-c2nc(N)ncc2OCCN2CCOCC2)c2cc(C#CC(C)(O)C3CC3)ncc21 (stereo not drawn) [Compound 4]	0.15			1.19	0.208	0.152	
CCCCN1CCC(n2cc(-c3nc(N)ncc3F)c3cc(C#CC(C)(O)C4CC4)ncc32)C1 (single isomer, unassigned) [Compound 27]	0.026	0.092	0.053				0.1
CCCCN1CCC(n2cc(-c3nc(N)ncc3F)c3cc(C#CC(C)(O)C4CC4)ncc32)C1 (stereo not drawn) [Compound 11]	0.021			0.052	0.062	0.04	
Nc1ncc(F)c(-c2c[nH]c3cnc(C#CC4(O)CCCC4)cc23)n1 [Compound 20]	0.002			1.12	0.152	0.126	
CC(O)(C#Cc1cc2c(-c3nc(N)ncc3F)c[nH]c2cn1)c1nccs1 (stereo not drawn) [Compound 19]	0.003			7.62	1.01	1.27	
CC(O)(C#Cc1cc2c(-c3nc(N)ncc3F)c[nH]c2cn1)c1nccs1 (single isomer, unassigned) [Compound 31]	0.002	0.634	1.21				5.74
CC(O)(C#Cc1cc2c(-c3nc(N)ncc3F)c[nH]c2c(C2CC2)n1)C1CC1 (single isomer, unassigned) [Compound 13]	0.029			0.015	0.007	0.004	
CCN1CCC(n2cc(-c3nc(N)ncc3F)c3cc(C#CC(C)(O)C4CC4)nc(C)c32)C1 (stereo not drawn) [Compound 10]	0.058			0.02	0.022	0.01	
[2H]C([2H])([2H])C(O)(C#Cc1cc2c(-c3nc(N)ncc3F)cn(C3CCCN(CCC)C3)c2cn1)C([2H])([2H])[2H] (single isomer, unassigned) [Compound 24]	0.09	0.135	0.118				0.219
COCCN1CCC(n2cc(-c3nc(N)ncc3F)c3cc(C#CC(C)(O)C4CC4)ncc32)C1 (stereo not drawn) [Compound 7]	0.026			0.32	0.222	0.144	

More lines, main results first:

IC50 [1] [µM]	Structure (SMILES)	EC50 [2] [µM]	EC50 [3] [µM]	EC50 ([4]; Homo sapiens, LP-1, 72 h) [µM]	EC50 ([2]; Homo sapiens, JJN-3, 72 h) [µM]	EC50 ([3]; Homo sapiens, L-363, 72 h) [µM]	EC50 [4] [µM]
0.016	CC(O)(C#Cc1cc2c(-c3nc(N)ncc3F)cn(C3CN(C4CC4)C3)c2cn1)c1nccs1 (single isomer, unassigned) [Compound 28]	0.408	0.402	4.26			
0.01	Cc1cc(C(C)(O)C#Cc2cc3c(-c4nc(N)ncc4F)c[nH]c3cn2)no1 (stereo not drawn) [Compound 18]			5.03	1.19	1.09	
0.095	Nc1ncc(F)c(-c2cn(C3CN(C4CC4)C3)c3cnc(C#CC4(O)CCCC4)cc23)n1 [Compound 21]			1	0.464	0.408	
0.016	CC(O)(C#Cc1cc2c(-c3nc(N)ncc3F)cn(C3CN(C4CC4)C3)c2cn1)c1nccs1 (stereo not drawn) [Compound 14]			3.98	0.631	1.22	
0.189	CC(O)(C#Cc1cc2c(-c3nc(N)ncc3F)cn(C3CN(C4CC4)C3)c2cn1)c1ncccn1 (stereo not drawn) [Compound 17]			29	6.72	8.26	
0.067	Cc1cc(C(C)(O)C#Cc2cc3c(-c4nc(N)ncc4F)c[nH]c3c(C3CC3)n2)no1 (stereo not drawn) [Compound 23]			1.28	0.442	0.368	
0.074	CC(O)(C#Cc1cc2c(-c3nc(N)ncc3F)cn(C3CN(CCC(F)(F)F)C3)c2cn1)C1CC1 (stereo not drawn) [Compound 5]			0.377	0.227	0.175	
0.003	Cc1cc(C(C)(O)C#Cc2cc3c(-c4nc(N)ncc4F)c[nH]c3cn2)no1 (single isomer, unassigned) [Compound 33]	0.593	0.472				4.12
0.029	CCCN1CCC(n2cc(-c3nc(N)ncc3F)c3cc(C#CC(C)(O)C4CC4)ncc32)C1 (stereo not drawn) [Compound 6]			0.069	0.062	0.031	
0.069	CC(O)C#Cc1cc2c(-c3nc(N)ncc3F)cn(C3CN(C4CC4)C3)c2cn1 (stereo not drawn) [Compound 9]			0.131	0.055	0.037	
0.379	Cc1cc(C(C)(O)C#Cc2cc3c(-c4nc(N)ncc4F)c[nH]c3cn2)no1 (single isomer, unassigned) [Compound 32]	4.34	5.5				19.6
0.144	Cc1nc(C(C)(O)C#Cc2cc3c(-c4nc(N)ncc4F)cn(C4CN(C5CC5)C4)c3cn2)no1 (stereo not drawn) [Compound 15]			14.4	3.22	2.72	
0.155	CC(C)N1CCC(n2cc(-c3nc(N)ncc3F)c3cc(C#CC(C)(O)C4CC4)ncc32)C1 (stereo not drawn) [Compound 3]			0.147	0.133	0.056	
0.034	Cc1cc(C(C)(O)C#Cc2cc3c(-c4nc(N)ncc4F)cn(C4CN(C5CC5)C4)c3cn2)no1 (stereo not drawn) [Compound 16]			1.8	0.951	0.811	
0.735	CC(O)(C#Cc1cc2c(-c3nc(N)ncc3F)cn(C3CN(C4CC4)C3)c2cn1)c1nccs1 (single isomer, unassigned) [Compound 29]	1.93	3.08				3.53
